Data set [1] deals with U-2 OS cells. Briefly: MTT assay. The format is cell-based. As to conditions: Homo sapiens, U2OS, 120 h. For orientation: Tetrazolium assays rely on reduction of a dye to a coloured formazan, in cell work by metabolically active cells.
For data set [2], the system named is Huh 7.5 cells. The data set can be described thus: MTT assay, non-infected cells. The class given is cell-based. Particulars: Homo sapiens, Huh7.5, 120 h.
In data set [3] the test system is Acyrthosiphon pisum. The data set can be described thus: Insecticidal activity, direct application to the posterior segment of adult insects. The class given is in vivo. As to conditions: for Death rate: positive control, 0.5 microliter of 0.01 μg/mL in acetone, after one hour; for Death rate / Death rate at 0.5 μg/insect: 20 insects; for Death rate at 0.5 μg/insect: adult A. pisum, 0.5 μg/insect in acetone, survival after one hour.

The test system of data set [4] is HCoV229E. The data set can be described thus: cells. The format is cell-based, human pathogenic coronavirus HCoV229E. As to conditions: for IC50: HCoV229E replication in Huh-7.5 cells; for factor between cytotoxic activity (IC50 Huh-7.5) and antiviral activity (IC50 HCoV229E): IC50 Huh-7.5 versus IC50 HCoV229E.
In data set [5] the test system is Pseudomonas aeruginosa PA14. The data set can be described thus: Antimicrobial MIC determination, serial dilution in 96 well plates. The format is cell-based. As to conditions: 24 h at 37 °C.
Data set [6] concerns Bacillus subtilis DSM-10. The description is as above. The class given is cell-based.
The test system of data set [7] is Pichia anomala. Described as above. The class given is cell-based. Particulars: Hansenula anomala.
Data set [8] deals with Escherichia coli ΔacrB JW0451-2. Described as above. The format is cell-based. As to conditions: 24 h.
In data set [9] the test system is Staphylococcus aureus Newman. The description is as above. The format is cell-based. As to conditions: 24 h at 37 °C.
Data set [10] concerns Escherichia coli BW25113. The description is as above. The format is cell-based. Particulars: 24 h at 37 °C.
The target in data set [11] is SARS-CoV-2 RdRp complex (Nsp7, Nsp8, Nsp12) (Severe acute respiratory syndrome coronavirus 2, UniProt P0DTD1). The data set can be described thus: biochemical. As to conditions: full template-length RNA product.
Data set [12] relates to Candida albicans DSM-1665. Briefly: Antimicrobial MIC determination, serial dilution in 96 well plates. The class given is cell-based. Particulars: DSM1665.
The subject of data set [13] is Mycobacterium smegmatis mc2 155. Described as above. The class given is cell-based. As to conditions: Mycolicibacterium smegmatis, MC2155.
Data set [14] has as its system Huh-7.5 host cells. Particulars: Huh-7.5 host cells in the antiviral assay.
Setting [15] is: DSM10, 24 h at 37 °C, read-out: MIC.
Setting [16] is: non-infected Huh 7.5 cells, 5 days at 37 °C.
Setting [17] is: Homo sapiens, Huh7.5, 48 h at 33 °C.

≈ marks a conversion by molar mass, not a printed value. Where two headings read alike, the source gives them in different places.

As usually defined, the IC50 is the midpoint of a concentration-inhibition curve. Lower therefore signals greater potency in that assay. By MIC is commonly meant the lowest concentration found to suppress growth.

In the case of `COc1cccc2c1C(=O)c1c(O)c3c(c(O)c1C2=O)C[C@@](O)(C(=O)CO)C[C@@H]3O[C@H]1C[C@H](N)[C@H](O)[C@H](C)O1` [Doxorubicin, reference compound], the half-maximal inhibitory concentration (IC50) came out at 0.015 µM in data set [1] (positive control, 5 days) and 0.037 µM in data set [2] (positive control, Huh 7.5 cells, 5 days).

On to `O=[N+]([O-])NC1=NCCN1Cc1ccc(Cl)nc1` [Imidacloprid, reference compound], for which the values for the Death rate in data set [3] and in [3] (listed as imidacloprid) were 100 (Imidacloprid) % and 100%, respectively.

In data set [4] (positive control, 48 h), `CCC(CC)COC(=O)[C@H](C)N[P@](=O)(OC[C@H]1O[C@@](C#N)(c2ccc3c(N)ncnn23)[C@H](O)[C@@H]1O)Oc1ccccc1` [Remdesivir, reference compound] came in with an IC50 of 0.0056 µM.

Consider `CC(C)=CCC/C(C)=C/CC/C(C)=C/Cn1c(/C=C(\C)CC/C=C(\C)CCC=C(C)C)nc2cc(C)c(C)cc21` [Sandacrabin A], for which the MIC is above 64 µg/mL in data set [5]; 32 µg/mL (≈ 59.2 µM) in data set [6] (24 h at 37 °C); 32 µg/mL (≈ 59.2 µM) in data set [6] (setting [15]); above 64 µg/mL in [7]; above 64 µg/mL in data set [8]; 128 µg/mL (≈ 237 µM) in data set [9]. The MIC in data set [10], in data set [12] and in [13] was above 64 µg/mL each time. For the same compound, the “Death rate at 0.5 μg/insect” value in data set [3] was found to be 10%. The minimal insecticidal concentration in [3] (dilution series 5–0.05 μg per insect, test group of three insects) is above 5 μg/insect. Moreover, the IC50 is above 37 µM in [1] (5 days at 37 °C), 108 µM in data set [11], above 37 µM in [2] (setting [16]) and above 10 µM in data set [4] (setting [17]). Further, the “antiviral activity, effect on viral replication (in words)” value in data set [4] (cells infected with HCoV229E) is “did not show any effect on viral replication”.

Consider `CC(C)=CCC/C(C)=C/CC/C(C)=C/Cn1c[n+](C/C=C(\C)CC/C=C(\C)CCC=C(C)C)c2cc(C)c(C)cc21` [Sandacrabin B], for which the MIC in data set [5] is above 64 µg/mL; in [6] (24 h at 37 °C), 64 µg/mL; in data set [6] (setting [15]) it was 64 µg/mL; in [7] it was above 64 µg/mL; in [8], above 64 µg/mL; in data set [9], 64 to 128 µg/mL. Besides, the MIC in [10], in [12] and in data set [13] was above 64 µg/mL each time. In addition, in [3], the “Death rate at 0.5 μg/insect” value was found to be 100%. Moreover, the IC50 in data set [1] (5 days at 37 °C) came to 0.51 µM; in data set [11], 3.5 µM; in [2] (setting [16]), 0.7 µM; in [4] (setting [17]), 0.18 µM. Further, in data set [14], the “cytotoxic effects on host cells (in words)” value is “cytotoxic effects at the highest test concentration”. Besides, in [4], the “factor between cytotoxic activity (IC50 Huh-7.5) and antiviral activity (IC50 HCoV229E)” value (“factor between cytotoxic activity” for short) was 3–4 fold.

As to `CC(C)=CCC/C(C)=C/CC/C(C)=C/Cn1c(C)[n+](C/C=C(\C)CC/C=C(\C)CCC=C(C)C)c2cc(C)c(C)cc21` [Sandacrabin C], the MIC is above 64 µg/mL in data set [5]; 128 µg/mL in data set [6] (24 h at 37 °C); 128 µg/mL in data set [6] (setting [15]); above 64 µg/mL in [7]; above 64 µg/mL in [8]; 64 to 128 µg/mL in data set [9]. The MIC in [10], in data set [12] and in [13] was above 64 µg/mL throughout. For the same compound, the “Death rate at 0.5 μg/insect” value in data set [3] came out at 90%. The IC50 in data set [1] (5 days at 37 °C) was 1.22 µM; in data set [11], 6.8 µM; in data set [2] (setting [16]), 3.61 µM; in data set [4] (setting [17]) it was 0.34 µM. In data set [14], the “cytotoxic effects on host cells (in words)” value is given as “cytotoxic effects at the highest test concentration”. Moreover, in [4], the “factor between cytotoxic activity” value is reported as 11 fold.

In the case of `CC(C)=CCC/C(C)=C/CC/C(C)=C/Cn1cnc2cc(C)c(C)cc21` [Sandacrabin D], the MIC in data set [5] was above 64 µg/mL; in data set [6] (24 h at 37 °C), 64 µg/mL (≈ 183 µM); in [6] (setting [15]) it was 64 µg/mL (≈ 183 µM); in [7] it was above 64 µg/mL; in data set [8], above 64 µg/mL; in [9], 64 µg/mL (≈ 183 µM). Moreover, the MIC in [10] was above 64 µg/mL; in data set [12], above 64 µg/mL; in data set [13], 64 µg/mL (≈ 183 µM). Moreover, the “Death rate at 0.5 μg/insect” value in data set [3] was found to be 100%. For the same compound, the IC50 in [1] (5 days at 37 °C) is 16.9 µM; in [11] it was 85 µM; in [2] (setting [16]), 4.63 µM; in data set [4] (setting [17]), 1.64 µM. In data set [4], the “factor between cytotoxic activity” value is recorded as 3–4 fold.

Turning to `CC(C)=CCC/C(C)=C/CC/C(C)=C/Cn1c(C)nc2cc(C)c(C)cc21` [Sandacrabin E], the MIC in [5] was above 64 µg/mL; in [6] (24 h at 37 °C), 64 µg/mL (≈ 176 µM); in data set [6] (setting [15]), 64 µg/mL (≈ 176 µM); in data set [7], above 64 µg/mL; in data set [8], above 64 µg/mL; in [9], 64 µg/mL (≈ 176 µM). The MIC was above 64 µg/mL in [10], above 64 µg/mL in data set [12] and 64 µg/mL (≈ 176 µM) in data set [13]. The “Death rate at 0.5 μg/insect” value in [3] was 90%. Besides, the IC50 was determined as 13.7 µM in [1] (5 days at 37 °C), 43 µM in data set [11], 6.72 µM in data set [2] (setting [16]) and 1.91 µM in [4] (setting [17]). Further, the “factor between cytotoxic activity” value in [4] is 3–4 fold.

With `CN[C@H](CC(C)C)C(=O)N[C@H]1C(=O)N[C@@H](CC(N)=O)C(=O)N[C@H]2C(=O)N[C@H]3C(=O)N[C@H](C(=O)N[C@H](C(=O)O)c4cc(O)cc(O)c4-c4cc3ccc4O)[C@H](O)c3ccc(c(Cl)c3)Oc3cc2cc(c3O[C@@H]2O[C@H](CO)[C@@H](O)[C@H](O)[C@H]2O[C@H]2C[C@](C)(N)[C@H](O)[C@H](C)O2)Oc2ccc(cc2Cl)[C@H]1O` [Vancomycin, reference compound], the MIC in data set [6] (setting [15]) lay within 0.1 to 0.2 µg/mL (≈ 0.069 to 0.138 µM).

Values taken from publication PMC9306752, “Sandacrabins – Structurally Unique Antiviral RNA Polymerase Inhibitors from a Rare Myxobacterium” (Chemistry (Weinheim an Der Bergstrasse, Germany), 2022).
